Measured values taken from ChEMBL document CHEMBL1201862, “PubChem BioAssay data set” (2004).
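Cultured in 96-well plates, cells were exposed to test compound for 48 hours across five concentrations. GI50 is the concentration that inhibits growth by half.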 The source made the active and inactive calls. Rule as the data show it: active = GI50 up to about 1.1 µM and inactive = higher.

Columns and labels:
Assay in all cases: DTP human tumour cell line panel, 48 h
[1] = test system: SK-MEL-5
[2] = test system: NCI-H460
[3] = test system: HCT-116
[4] = test system: MOLT-4
[5] = test system: OVCAR-5
[6] = test system: NCI/ADR-RES
[7] = test system: OVCAR-8
[8] = test system: CAKI-1
[9] = test system: T47D
[10] = test system: ACHN
[11] = test system: Hs-578T
[12] = test system: MCF7
[13] = test system: NCI-H522
[14] = test system: SR
[15] = test system: 786-0
[16] = test system: OVCAR-3
[17] = test system: Malme-3M
[18] = test system: UACC-257
[19] = test system: UACC-62
[20] = test system: NCI-H226

Measured: GI50

COc1ccc2c3c1OC1C(=O)C=CC4(CC2)N(C)CCC314 (stereo unspecified)
inactive: [1] 10.4 µM | [2] 16.6 µM | [3] 14 µM | [4] 12.8 µM | [5] 29.5 µM | [6] 22.9 µM | [7] 22.5 µM | [8] 20.1 µM | [9] 19.4 µM | [10] 18.9 µM | [11] 19.3 µM | [12] 20.2 µM | [13] 11 µM | [14] 7.21 µM | [15] 17.2 µM | [16] 19.4 µM | [17] 35.1 µM | [18] 28.6 µM | [19] > 10 µM

CCCCCCCCCCCCCCCC[N+](C)(C)CCl
inactive: [1] 1.68 µM | [2] 1.77 µM | [3] 2.14 µM | [4] 1.84 µM | [5] 6.89 µM | [6] 20.6 µM | [7] 2.61 µM | [8] 2.67 µM | [9] 3.57 µM | [10] 2.66 µM | [11] 1.85 µM | [12] 2.69 µM | [20] 2.12 µM | [14] 1.99 µM | [15] 1.55 µM | [16] 3.03 µM | [17] 2.65 µM | [18] 4.71 µM | [19] 2.29 µM

NCCCN1CCN(CCCNc2ccc3nnn4c5ccccc5c(=O)c2c34)CC1
inactive: [1] 13.5 µM | [2] 18.4 µM | [3] 6.73 µM | [4] 9.51 µM | [5] 29.6 µM | [6] 55 µM | [7] 20 µM | [8] 14.6 µM | [9] 30.2 µM | [10] 12.4 µM | [11] 27.4 µM | [12] 16.2 µM | [13] 11.3 µM | [14] > 100 µM | [15] 9.06 µM | [16] 37.4 µM | [17] 18.8 µM | [18] 28.2 µM | [19] 15.4 µM

OCCCCCCCCCCCOc1ccc(C2OCC3(CO2)COC(c2ccc(OCCCCCCCCCCCO)cc2)OC3)cc1 (stereo unspecified)
inactive: [1] > 50 µM | [2] > 50 µM | [3] > 50 µM | [4] > 50 µM | [5] > 50 µM | [6] > 50 µM | [7] > 50 µM | [8] > 50 µM | [9] > 50 µM | [10] > 50 µM | [11] > 50 µM | [12] > 50 µM | [20] 29.6 µM | [14] > 50 µM | [15] > 50 µM | [16] > 50 µM | [17] > 50 µM | [18] > 50 µM | [19] > 50 µM

CCCCCCC(N)(CCCCCC)C(=O)Nn1c(C)ccc1C
inactive: [1] 21.9 µM | [2] 31.8 µM | [3] 10.9 µM | [4] > 100 µM | [5] > 100 µM | [6] 16 µM | [7] 50 µM | [9] 13.6 µM | [10] 6.55 µM | [11] 18.8 µM | [12] 14.6 µM | [13] 53.8 µM | [20] 43.7 µM | [14] 29.9 µM | [15] 28.6 µM | [16] > 100 µM | [17] > 100 µM | [18] 36.4 µM | [19] 48 µM

O=C(Oc1ccc2c(c1)CN(Cc1ccccc1)CO2)c1ccccc1
inactive: [1] 17.1 µM | [2] 18.7 µM | [3] 16 µM | [4] 10.7 µM | [5] 18.3 µM | [6] 23.4 µM | [7] 16.7 µM | [8] 20 µM | [9] 21.7 µM | [10] 18.8 µM | [11] 23.7 µM | [12] 16.9 µM | [13] 7.06 µM | [14] 18.2 µM | [15] 16.9 µM | [16] 15.4 µM | [17] 18.9 µM | [18] 15.1 µM | [19] 16.8 µM

O=CC(O)C(O)C(O)C(O)C(=O)NCCCCCCCCCCCCNC(=O)C(O)C(O)C(O)C(O)C=O (stereo unspecified)
inactive: [1] > 100 µM | [2] > 100 µM | [3] > 100 µM | [4] > 100 µM | [5] > 100 µM | [6] > 100 µM | [7] > 100 µM | [9] > 100 µM | [10] > 100 µM | [11] > 100 µM | [12] > 100 µM | [13] > 100 µM | [20] > 100 µM | [14] > 100 µM | [15] > 100 µM | [16] > 100 µM | [17] > 100 µM | [18] > 100 µM | [19] > 100 µM

C[n+]1c(-c2ccc(/C=N\N3CCN(/N=C/c4ccc(-c5cn6ccsc6[n+]5C)cc4)CC3)cc2)cn2ccsc21
inactive: [1] 22.8 µM | [2] 26.7 µM | [3] 33.3 µM | [4] 85.3 µM | [5] > 100 µM | [6] > 100 µM | [7] 41.7 µM | [8] 34 µM | [9] 12.7 µM | [10] 65.5 µM | [11] 19.2 µM | [12] 29.9 µM | [13] 18.1 µM | [20] 45.8 µM | [14] 41.4 µM | [15] 26.1 µM | [16] 59.8 µM | [18] 19.5 µM | [19] 22.1 µM

Cc1cc2c(=O)c3ccccc3oc2c(C#N)c1C
inactive: [1] > 100 µM | [2] > 100 µM | [3] > 100 µM | [4] > 100 µM | [5] > 100 µM | [6] > 100 µM | [7] > 100 µM | [8] > 100 µM | [9] > 100 µM | [10] > 100 µM | [11] > 100 µM | [12] > 100 µM | [14] > 100 µM | [15] > 100 µM | [17] > 100 µM | [18] > 100 µM

O=C(OC[C@H]1C[C@H]2C(=O)CCC[C@H]2O1)c1ccccc1
inactive: [1] > 100 µM | [2] > 100 µM | [3] > 100 µM | [4] > 100 µM | [5] > 100 µM | [6] > 100 µM | [7] > 100 µM | [8] > 100 µM | [9] > 100 µM | [10] > 100 µM | [11] > 100 µM | [12] > 100 µM | [13] > 100 µM | [20] > 100 µM | [14] > 100 µM | [15] > 100 µM | [16] > 100 µM | [18] > 100 µM | [19] > 100 µM

COc1cccc(Nc2nc(C)c([N+](=O)[O-])c(Nc3cccc(OC)c3)n2)c1
inactive: [1] 11.4 µM | [2] 3.95 µM | [3] 26.6 µM | [4] 4.37 µM | [5] > 100 µM | [6] 2.92 µM | [7] 5.74 µM | [9] 2.05 µM | [10] 19.4 µM | [11] 50.1 µM | [12] 2.24 µM | [13] 8.18 µM | [20] 40.8 µM | [14] 7.76 µM | [15] 51.9 µM | [16] 12.9 µM | [17] 53.1 µM | [18] 9.57 µM | [19] 5.75 µM
